Laboratory results published in PubChem BioAssay AID1918993 (Molecular Pharmacology Branch, DTP, NCI, 2023).

Test system: 233499-124-R-J3-PDC complex spheroid growth
Experiment: Anticancer human tumor 233499-124-R-J3-PDC patient-derived colon adenocarcinoma cell line growth inhibition [AhR]
Details: for IC50: curve of first compound; for viability, T/C: stronger effect = lower value
Procedure, shortened: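 Complex tumor spheroids co-cultured with HUVEC and human MSC stroma; AhR antagonists tested in combination with standard-of-care and investigational agents. Top concentration at or near clinical Cmax (else 10 microM), half-log dilutions; growth expressed as percent test/control.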

[1] = second compound 0.1 µM, first compound 0.0316 µM
[2] = second compound 0.1 µM, first compound 0.1 µM
[3] = second compound 0.1 µM, first compound 0.316 µM
[4] = second compound 0.1 µM, first compound 1 µM
[5] = second compound 0.1 µM, first compound 3.16 µM
[6] = second compound 0.1 µM, first compound 10 µM
[7] = second compound 0.316 µM, first compound 0.0316 µM
[8] = second compound 0.316 µM, first compound 0.1 µM
[9] = second compound 0.316 µM, first compound 0.316 µM
[10] = second compound 0.316 µM, first compound 1 µM
[11] = second compound 0.316 µM, first compound 3.16 µM
[12] = second compound 0.316 µM, first compound 10 µM
[13] = second compound 1 µM, first compound 0.0316 µM
[14] = second compound 1 µM, first compound 0.1 µM
[15] = second compound 1 µM, first compound 0.316 µM
[16] = second compound 1 µM, first compound 1 µM
[17] = second compound 1 µM, first compound 3.16 µM
[18] = second compound 1 µM, first compound 10 µM
[19] = second compound 3.16 µM, first compound 0.0316 µM
[20] = second compound 3.16 µM, first compound 0.1 µM
[21] = second compound 3.16 µM, first compound 0.316 µM
[22] = second compound 3.16 µM, first compound 1 µM
[23] = second compound 3.16 µM, first compound 3.16 µM
[24] = second compound 3.16 µM, first compound 10 µM
[25] = second compound 10 µM, first compound 0.0316 µM
[26] = second compound 10 µM, first compound 0.1 µM
[27] = second compound 10 µM, first compound 0.316 µM
[28] = second compound 10 µM, first compound 1 µM
[29] = second compound 10 µM, first compound 3.16 µM
[30] = second compound 10 µM, first compound 10 µM
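Note: spheroids exposed to agents for seven days before reading.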

Structure (SMILES): CC(C)c1c(-c2ccccc2)nc2c(C#N)c[nH]n2c1=O + Cc1ccccc1N=Nc1ccc(NC(=O)c2ccnn2C)c(C)c1
- IC50 (second compound 0.1 µM): > 10 µM
- IC50 (second compound 0.316 µM): > 10 µM
- IC50 (second compound 1 µM): > 10 µM
- IC50 (second compound 3.16 µM): > 10 µM
- IC50 (second compound 10 µM): > 10 µM
- viability, T/C [1]: 110%
- viability, T/C [2]: 98.9%
- viability, T/C [3]: 101%
- viability, T/C [4]: 112%
- viability, T/C [5]: 95.2%
- viability, T/C [6]: 105%
- viability, T/C [7]: 100%
- viability, T/C [8]: 108%
- viability, T/C [9]: 92.3%
- viability, T/C [10]: 104%
- viability, T/C [11]: 118%
- viability, T/C [12]: 107%
- viability, T/C [13]: 110%
- viability, T/C [14]: 110%
- viability, T/C [15]: 98.7%
- viability, T/C [16]: 102%
- viability, T/C [17]: 106%
- viability, T/C [18]: 106%
- viability, T/C [19]: 102%
- viability, T/C [20]: 99.5%
- viability, T/C [21]: 103%
- viability, T/C [22]: 110%
- viability, T/C [23]: 108%
- viability, T/C [24]: 105%
- viability, T/C [25]: 103%
- viability, T/C [26]: 102%
- viability, T/C [27]: 107%
- viability, T/C [28]: 101%
- viability, T/C [29]: 89%
- viability, T/C [30]: 85.3%

Structure (SMILES): CC1COCCN1c1cc(-c2ccnn2C)c2ccnc(-c3ccn[nH]3)c2n1 (stereo not given) + Cc1ccccc1N=Nc1ccc(NC(=O)c2ccnn2C)c(C)c1
- IC50 (second compound 0.1 µM): > 1 µM
- IC50 (second compound 0.316 µM): > 1 µM
- IC50 (second compound 1 µM): 0.984 µM
- IC50 (second compound 3.16 µM): > 1 µM
- IC50 (second compound 10 µM): > 1 µM
- viability, T/C (second compound 0.1 µM, first compound 0.00316 µM): 91.3%
- viability, T/C (second compound 0.1 µM, first compound 0.01 µM): 98.8%
- viability, T/C [1]: 105%
- viability, T/C [2]: 93.9%
- viability, T/C [3]: 68.2%
- viability, T/C [4]: 55.1%
- viability, T/C (second compound 0.316 µM, first compound 0.00316 µM): 99.4%
- viability, T/C (second compound 0.316 µM, first compound 0.01 µM): 93.9%
- viability, T/C [7]: 92.2%
- viability, T/C [8]: 92.3%
- viability, T/C [9]: 75%
- viability, T/C [10]: 50.7%
- viability, T/C (second compound 1 µM, first compound 0.00316 µM): 87.1%
- viability, T/C (second compound 1 µM, first compound 0.01 µM): 97.1%
- viability, T/C [13]: 85.6%
- viability, T/C [14]: 91.8%
- viability, T/C [15]: 81.6%
- viability, T/C [16]: 49.3%
- viability, T/C (second compound 3.16 µM, first compound 0.00316 µM): 91.8%
- viability, T/C (second compound 3.16 µM, first compound 0.01 µM): 103%
- viability, T/C [19]: 85%
- viability, T/C [20]: 74%
- viability, T/C [21]: 57.2%
- viability, T/C [22]: 58%
- viability, T/C (second compound 10 µM, first compound 0.00316 µM): 103%
- viability, T/C (second compound 10 µM, first compound 0.01 µM): 99.3%
- viability, T/C [25]: 101%
- viability, T/C [26]: 80.5%
- viability, T/C [27]: 74.5%
- viability, T/C [28]: 58.7%

Structure (SMILES): CC1COCCN1c1cc(C2(S(C)(=N)=O)CC2)nc(-c2ccnc3[nH]ccc23)n1 (stereo not given) + Cc1ccccc1N=Nc1ccc(NC(=O)c2ccnn2C)c(C)c1
- IC50 (second compound 0.1 µM): > 10 µM
- IC50 (second compound 0.316 µM): > 10 µM
- IC50 (second compound 1 µM): > 10 µM
- IC50 (second compound 3.16 µM): > 10 µM
- IC50 (second compound 10 µM): > 10 µM
- viability, T/C [1]: 103%
- viability, T/C [2]: 112%
- viability, T/C [3]: 91.2%
- viability, T/C [4]: 97.8%
- viability, T/C [5]: 88.8%
- viability, T/C [6]: 91%
- viability, T/C [7]: 113%
- viability, T/C [8]: 107%
- viability, T/C [9]: 94.5%
- viability, T/C [10]: 99.7%
- viability, T/C [11]: 96.6%
- viability, T/C [12]: 85%
- viability, T/C [13]: 103%
- viability, T/C [14]: 100%
- viability, T/C [15]: 104%
- viability, T/C [16]: 97.6%
- viability, T/C [17]: 77.7%
- viability, T/C [18]: 74.2%
- viability, T/C [19]: 112%
- viability, T/C [20]: 110%
- viability, T/C [21]: 105%
- viability, T/C [22]: 101%
- viability, T/C [23]: 99.7%
- viability, T/C [24]: 84.1%
- viability, T/C [25]: 108%
- viability, T/C [26]: 107%
- viability, T/C [27]: 118%
- viability, T/C [28]: 106%
- viability, T/C [29]: 109%
- viability, T/C [30]: 77.8%

Structure (SMILES): COc1ccc([C@@H](O)c2cc(-c3ncnc4cc(N5CCOCC5)ccc34)c(F)cc2Cl)nn1 + Cc1ccccc1N=Nc1ccc(NC(=O)c2ccnn2C)c(C)c1
- IC50 (second compound 0.1 µM): > 10 µM
- IC50 (second compound 0.316 µM): > 10 µM
- IC50 (second compound 1 µM): > 10 µM
- IC50 (second compound 3.16 µM): > 10 µM
- IC50 (second compound 10 µM): > 10 µM
- viability, T/C [1]: 90.3%
- viability, T/C [2]: 98.9%
- viability, T/C [3]: 96.8%
- viability, T/C [4]: 104%
- viability, T/C [5]: 101%
- viability, T/C [6]: 89.2%
- viability, T/C [7]: 97.3%
- viability, T/C [8]: 101%
- viability, T/C [9]: 86.3%
- viability, T/C [10]: 102%
- viability, T/C [11]: 92%
- viability, T/C [12]: 63.6%
- viability, T/C [13]: 104%
- viability, T/C [14]: 98.4%
- viability, T/C [15]: 102%
- viability, T/C [16]: 95.7%
- viability, T/C [17]: 85.5%
- viability, T/C [18]: 90.2%
- viability, T/C [19]: 99.5%
- viability, T/C [20]: 101%
- viability, T/C [21]: 93.5%
- viability, T/C [22]: 97.8%
- viability, T/C [23]: 92.2%
- viability, T/C [24]: 76.3%
- viability, T/C [25]: 90.5%
- viability, T/C [26]: 90.3%
- viability, T/C [27]: 85.6%
- viability, T/C [28]: 94.6%
- viability, T/C [29]: 91.4%
- viability, T/C [30]: 60.6%

Structure (SMILES): O=C(C=Cn1cnc(-c2cc(C(F)(F)F)cc(C(F)(F)F)c2)n1)NNc1cnccn1 + Cc1ccccc1N=Nc1ccc(NC(=O)c2ccnn2C)c(C)c1
- IC50 (second compound 0.1 µM): > 3 µM
- IC50 (second compound 0.316 µM): > 3 µM
- IC50 (second compound 1 µM): > 3 µM
- IC50 (second compound 3.16 µM): > 3 µM
- IC50 (second compound 10 µM): > 3 µM
- viability, T/C (second compound 0.1 µM, first compound 0.00949 µM): 109%
- viability, T/C (second compound 0.1 µM, first compound 0.03 µM): 91.2%
- viability, T/C (second compound 0.1 µM, first compound 0.0949 µM): 110%
- viability, T/C (second compound 0.1 µM, first compound 0.3 µM): 86.7%
- viability, T/C (second compound 0.1 µM, first compound 0.949 µM): 96%
- viability, T/C (second compound 0.1 µM, first compound 3 µM): 61%
- viability, T/C (second compound 0.316 µM, first compound 0.00949 µM): 104%
- viability, T/C (second compound 0.316 µM, first compound 0.03 µM): 113%
- viability, T/C (second compound 0.316 µM, first compound 0.0949 µM): 111%
- viability, T/C (second compound 0.316 µM, first compound 0.3 µM): 96.4%
- viability, T/C (second compound 0.316 µM, first compound 0.949 µM): 87.3%
- viability, T/C (second compound 0.316 µM, first compound 3 µM): 76.8%
- viability, T/C (second compound 1 µM, first compound 0.00949 µM): 97.8%
- viability, T/C (second compound 1 µM, first compound 0.03 µM): 98.3%
- viability, T/C (second compound 1 µM, first compound 0.0949 µM): 116%
- viability, T/C (second compound 1 µM, first compound 0.3 µM): 100%
- viability, T/C (second compound 1 µM, first compound 0.949 µM): 78%
- viability, T/C (second compound 1 µM, first compound 3 µM): 77.8%
- viability, T/C (second compound 3.16 µM, first compound 0.00949 µM): 98%
- viability, T/C (second compound 3.16 µM, first compound 0.03 µM): 99.1%
- viability, T/C (second compound 3.16 µM, first compound 0.0949 µM): 92.8%
- viability, T/C (second compound 3.16 µM, first compound 0.3 µM): 86.8%
- viability, T/C (second compound 3.16 µM, first compound 0.949 µM): 93.2%
- viability, T/C (second compound 3.16 µM, first compound 3 µM): 70.8%
- viability, T/C (second compound 10 µM, first compound 0.00949 µM): 101%
- viability, T/C (second compound 10 µM, first compound 0.03 µM): 85%
- viability, T/C (second compound 10 µM, first compound 0.0949 µM): 85.3%
- viability, T/C (second compound 10 µM, first compound 0.3 µM): 108%
- viability, T/C (second compound 10 µM, first compound 0.949 µM): 85.6%
- viability, T/C (second compound 10 µM, first compound 3 µM): 50.2%
